Reference: article PMC3703888, “Integration of Different “-omics” Technologies Identifies Inhibition of the IGF1R-Akt-mTOR Signaling Cascade Involved in the Cytotoxic Effect of Shikonin against Leukemia Cells” (Evidence-based Complementary and Alternative Medicine : eCAM, 2013)
Entries after “also recorded” stand apart in the source; their conditions may differ.

How the values were obtained:
p-ribosomal protein S6 = assay: FlowCellect PI3K-mTOR signaling cascade assay (flow cytometry), p-ribosomal protein S6; type: cell-based; details: U937 cells, 0.3 μM shikonin, 24 h
From the text: The FlowCellect PI3K-mTOR signaling cascade assay kit (Merck Millipore, Germany) was used to analyze the effect of shikonin on the PI3K-mTOR signaling pathway. The assay is based on two directly conjugated phospho-specific signaling antibodies against phosphorylated Akt and phosphorylated ribosomal S6 protein, which are both important signaling nodes of the mTOR cascade. The phosphorylation of Akt is indicative of the upstream PI3K signaling, marking the cells initiation into proliferation or cell survival. Phosphorylated-ribosomal S6 protein is indicative of downstream mTOR and p70S6K signaling leading to protein translation. The assay was performed according to the manufacture's protocol. Briefly, 1.5 × 10^6 U937 cells were treated with 0.3 μM shikonin or DMSO solvent control and incubated for 24 h. Subsequently, cells were fixed on ice for 20 min using the supplied fixation buffer. […] Subsequently, cells were measured in a LSR-Fortessa FACS analyzer (Becton-Dickinson, Germany) and shikonin fluorescence was compensated for the respective channels. For each sample, 1 × 10^4 cells were counted. The PerCP signal was measured with 488 nm excitation and detected using a 670/30 nm bandpass filter. The Alexa Fluor 488 signal was analyzed with 488 nm excitation and detected using a 530/30 nm bandpass filter. […] Cytographs were analyzed using FlowJo software (Celeza, Switzerland). […]

p-Akt = assay: FlowCellect PI3K-mTOR signaling cascade assay (flow cytometry), p-Akt; type: cell-based; details: 24 h
From the text: The FlowCellect PI3K-mTOR signaling cascade assay kit (Merck Millipore, Germany) was used to analyze the effect of shikonin on the PI3K-mTOR signaling pathway. The assay is based on two directly conjugated phospho-specific signaling antibodies against phosphorylated Akt and phosphorylated ribosomal S6 protein, which are both important signaling nodes of the mTOR cascade. The phosphorylation of Akt is indicative of the upstream PI3K signaling, marking the cells initiation into proliferation or cell survival. Phosphorylated-ribosomal S6 protein is indicative of downstream mTOR and p70S6K signaling leading to protein translation. The assay was performed according to the manufacture's protocol. Briefly, 1.5 × 10^6 U937 cells were treated with 0.3 μM shikonin or DMSO solvent control and incubated for 24 h. Subsequently, cells were fixed on ice for 20 min using the supplied fixation buffer. After fixation, cells were washed twice and treated with permeabilization buffer on ice for 20 min. After two further washing steps, cells were resuspended in a final volume of 90 μL assay buffer and incubated with 5 μL 20x anti-phospho-ribosomal protein S6 (Ser235) PerCP conjugated monoclonal antibody and 5 μL 20x anti-phospho-Akt1/PKBα (Ser473) Alexa Fluor 488 conjugated monoclonal antibody in the dark on ice for one hour. After antibody incubation, cells were centrifuged and resuspended in 500 μL assay buffer. Subsequently, cells were measured in a LSR-Fortessa FACS analyzer (Becton-Dickinson, Germany) and shikonin fluorescence was compensated for the respective channels. For each sample, 1 × 10^4 cells were counted. The PerCP signal was measured with 488 nm excitation and detected using a 670/30 nm bandpass filter. The Alexa Fluor 488 signal was analyzed with 488 nm excitation and detected using a 530/30 nm bandpass filter. All parameters were plotted on a logarithmic scale. Cytographs were analyzed using FlowJo software (Celeza, Switzerland). All experiments were performed at least in triplicate. Student's t-test was used for statistical analysis.

EGFR = test system: EGFR; design: method as in PMID 14568164; details: previous studies ref 24; cited from earlier work
U937 cells [1] = assay: mRNA microarray; type: cell-based, human; details: shikonin at IC50 concentration, 24 h vs DMSO
Method: Total RNA from U937 cells after 24 h of treatment with shikonin at IC50 concentration or DMSO solvent control was isolated using RNeasy Kit from Qiagen (Hilden, Germany) according to the manufacture's instruction. The quality of total RNA was checked by gel analysis using the total RNA Nano chip assay on an Agilent 2100 Bioanalyzer (Agilent Technologies GmbH, Berlin, Germany). Only samples with RNA index values greater than 9.3 were selected for expression profiling. Microarray experiments were performed in duplicates for treated and untreated samples. Biotin-labeled cRNA samples for hybridization on Illumina Human Sentrix-HT12 Bead Chip arrays (Illumina, Inc.) were prepared according to Illumina's recommended sample labeling procedure based on the modified Eberwine protocol. Biotin-16-UTP was purchased from Roche Applied Science (Penzberg, Germany). The cRNA was column purified with TotalPrep RNA Amplification Kit and eluted in 60 μL of water. Quality of cRNA was controlled using the RNA Nano Chip Assay on an Agilent 2100 Bioanalyzer and spectrophotometrically quantified (NanoDrop). Hybridization was also performed according the manufacturer's recommendations. Microarray scanning was done using a Beadstation array scanner, setting adjusted to a scaling factor of 1 and PMT settings at 430. Data was extracted for each bead individually, and outliers were removed when the MAD (median absolute deviation) was greater than 2.5. Data analysis was performed by using the quantile normalization algorithm without background subtraction, and differentially regulated genes were defined by calculating the standard deviation differences of a given probe in a one-by-one comparison of samples or groups. The expression data obtained was filtered with Chipster data analysis platform. These steps include filtering of genes by two times standard deviation of deregulated genes and a subsequent assessment of significance using empirical Bayes t-test (P < 0.05).

U937 cells [2] = assay: miRNA microarray; type: cell-based, human; details: shikonin at IC50 concentration, 24 h
Method: miRNA from U937 cells after 24 h of treatment with shikonin at IC50 concentration was isolated using miRNeasy Kit from Qiagen (Hilden, Germany) according to the manufacture's instruction. The quality of miRNA was checked by gel analysis using the Small RNA Nano chip assay on an Agilent 2100 Bioanalyzer (Agilent Technologies GmbH, Germany). The miRNA microarray was performed at the Institute for Molecular Biology (IMB). Microarray experiments were performed in duplicates for treated and untreated samples. Human miRNA microarray chips (8 × 60 K, Agilent Technologies) were used. Probe labeling and hybridization were carried out following the miRNA microarray system with miRNA complete labeling and hyb kit protocol (Agilent Technologies). Briefly, extracted RNA was treated with phosphatase. Dephosphorylated RNA was fluorescently labeled by ligation of Cyanine 3-pCp molecules to the 3′ end of RNA molecules using Agilent's miRNA Complete Labeling and Hyb Kit. The labeled RNA was desalted and hybridized for 20 hours at 55°C and 20 rpm. Microarray slides were washed and scanned with Agilent Microarray Scanning system. Images were analyzed and data were extracted, background subtracted, and normalized using the standard procedures of Agilent Feature Extraction Software. The expression data obtained was filtered with Chipster data analysis platform. These steps include filtering of miRNAs by two times standard deviation of deregulated genes and a subsequent assessment of significance using empirical Bayes t-test (P < 0.05).

[3] = cytograph p-Akt / p-ribosomal protein S6, U937 cells, 0.3 μM

**Q.** With `CC(C)=CC[C@@H](O)C1=CC(=O)c2c(O)ccc(O)c2C1=O` [shikonin] as the compound, how does the “Phosphorylation of ribosomal protein S6” value (p-ribosomal protein S6) read?
**A.** The value was “remained almost unchanged; also recorded: no effect”.

**Q.** What about the “Phosphorylation of Akt” value (p-Akt; U937 cells, 0.3 μM shikonin) of the same compound?
**A.** Its value is “significantly inhibits; also recorded: significantly decreased”.

**Q.** What about the “Cells in quadrant Q1” value (p-Akt; [3]) of the same compound?
**A.** Its value is 27.2%.

**Q.** And the “Cells in quadrant Q2” value (p-Akt; [3])?
**A.** Its value is 61.4%.

**Q.** What about the “Cells in quadrant Q3” value (p-Akt; [3]) of the same compound?
**A.** The value was 1.10%.

**Q.** What about the “Cells in quadrant Q4” value (p-Akt; [3]) of the same compound?
**A.** Its value is 10.3%.

**Q.** And the EGFR phosphorylation (EGFR)?
**A.** The EGFR phosphorylation was “inhibits EGFR phosphorylation”.

**Q.** What about the “FC mRNA ACTB (Actin, cytoplasmic 1)” value (U937 cells [1]) of the same compound?
**A.** The value was −6.8.

**Q.** What about the “FC mRNA ACTG1 (Actin, cytoplasmic 2)” value (U937 cells [1]) of the same compound?
**A.** Its value is −11.9.

**Q.** And the “FC mRNA ALDOA (Fructose-bisphosphate aldolase A)” value (U937 cells [1])?
**A.** Its value is −17.6.

**Q.** And the “FC mRNA ANXA1 (Annexin A1)” value (U937 cells [1])?
**A.** The value was “+4.1”.

**Q.** What about the “FC mRNA ARPC1B (Actin-related protein 2/3 complex subunit 1B)” value (U937 cells [1]) of the same compound?
**A.** The value was −7.8.

**Q.** What about the “FC mRNA CCL2 (C-C motif chemokine 2)” value (U937 cells [1]) of the same compound?
**A.** Its value is “+4.2”.

**Q.** And the “FC mRNA CCT7 (T-complex protein 1 subunit eta)” value (U937 cells [1])?
**A.** Its value is −7.8.

**Q.** What about the “FC mRNA ERP29 (Endoplasmic reticulum resident protein 29)” value (U937 cells [1]) of the same compound?
**A.** Its value is −6.0.

**Q.** What about the “FC mRNA HMOX1 (Heme oxygenase 1)” value (U937 cells [1]) of the same compound?
**A.** Its value is “+4.1”.

**Q.** And the “FC mRNA HSPD1 (60 kDa heat shock protein, mitochondrial)” value (U937 cells [1])?
**A.** The value was −6.6.

**Q.** What about the “FC mRNA JUN (Transcription factor AP-1)” value (U937 cells [1]) of the same compound?
**A.** The value was “+3.2”.

**Q.** And the “FC mRNA LY96 (Lymphocyte antigen 96)” value (U937 cells [1])?
**A.** Its value is “+4.5”.

**Q.** And the “FC mRNA MAFB (Transcription factor MafB)” value (U937 cells [1])?
**A.** Its value is “+3.5”.

**Q.** What about the “FC mRNA MLLT11 (Protein AF1q)” value (U937 cells [1]) of the same compound?
**A.** The value was “+6.2”.

**Q.** And the “FC mRNA NCF1 (Neutrophil cytosol factor 1)” value (U937 cells [1])?
**A.** Its value is −5.9.

**Q.** What about the “FC mRNA PSMC4 (26S protease regulatory subunit 6B)” value (U937 cells [1]) of the same compound?
**A.** The value was −7.7.

**Q.** And the “FC mRNA S100A8 (Protein S100-A8)” value (U937 cells [1])?
**A.** Its value is “+4.7”.

**Q.** What about the “FC mRNA S100A9 (Protein S100-A9)” value (U937 cells [1]) of the same compound?
**A.** The value was “+4.2”.

**Q.** What about the “FC mRNA SLC39A3 (Zinc transporter ZIP3)” value (U937 cells [1]) of the same compound?
**A.** The value was −6.2.

**Q.** And the “FC mRNA VIM (Vimentin)” value (U937 cells [1])?
**A.** Its value is “+4.2”.

**Q.** What about the “FC miRNA miR-19b-2-5p” value (U937 cells [2]) of the same compound?
**A.** The value was “+5.2”.

**Q.** And the “FC miRNA miR-20b-3p” value (U937 cells [2])?
**A.** The value was “+3.7”.

**Q.** And the “FC miRNA miR-30a-3p” value (U937 cells [2])?
**A.** Its value is “+2.9”.

**Q.** What about the “FC miRNA miR-33b-5p” value (U937 cells [2]) of the same compound?
**A.** Its value is “+3.1”.

**Q.** And the “FC miRNA miR-92a-3p” value (U937 cells [2])?
**A.** Its value is “+2.7”.

**Q.** And the “FC miRNA miR-155-3p” value (U937 cells [2])?
**A.** The value was “+3.4”.

**Q.** And the “FC miRNA miR-181a-2-3p” value (U937 cells [2])?
**A.** The value was “+3.2”.

**Q.** What about the “FC miRNA miR-193b-3p” value (U937 cells [2]) of the same compound?
**A.** Its value is “+2.7”.

**Q.** What about the “FC miRNA miR-223-5p” value (U937 cells [2]) of the same compound?
**A.** Its value is “+2.7”.

**Q.** What about the “FC miRNA miR-513a-5p” value (U937 cells [2]) of the same compound?
**A.** Its value is −4.7.

**Q.** What about the “FC miRNA miR-630” value (U937 cells [2]) of the same compound?
**A.** Its value is −5.1.

**Q.** What about the “FC miRNA miR-638” value (U937 cells [2]) of the same compound?
**A.** Its value is −6.1.

**Q.** What about the “FC miRNA miR-1185-5p” value (U937 cells [2]) of the same compound?
**A.** The value was −5.2.

**Q.** What about the “FC miRNA miR-1207-5p” value (U937 cells [2]) of the same compound?
**A.** Its value is −6.3.

**Q.** What about the “FC miRNA miR-1246” value (U937 cells [2]) of the same compound?
**A.** The value was −6.0.

**Q.** What about the “FC miRNA miR-1290” value (U937 cells [2]) of the same compound?
**A.** Its value is −6.2.

**Q.** What about the “FC miRNA miR-1915-3p” value (U937 cells [2]) of the same compound?
**A.** Its value is −13.8.

**Q.** And the “FC miRNA miR-2861” value (U937 cells [2])?
**A.** Its value is −9.8.

**Q.** And the “FC miRNA miR-3907” value (U937 cells [2])?
**A.** Its value is “+2.8”.

**Q.** What about the “FC miRNA miR-4299” value (U937 cells [2]) of the same compound?
**A.** The value was −30.6.
